Laboratory results from PMC5874699, “Antimicrobial and Antibiofilm Activity of UP-5, an Ultrashort Antimicrobial Peptide Designed Using Only Arginine and Biphenylalanine” (Pharmaceuticals, 2018).
Read-outs that look alike come from different tables or passages of the source. Square brackets hold non-standard residues; d marks the D form. Peptide text beside a SMILES is read from it. Bip = N[C@@H](Cc1ccc(-c2ccccc2)cc1)C(=O)O

Columns and labels:
[1] = test system: Staphylococcus aureus (ATCC 29213); assay type: cell-based; details: ATCC 29213, 24 h
Description: (§1) All bacterial susceptibility, biofilm, and synergistic assays of peptides, antibiotics, and peptides-antibiotics combinations used bacterial strains obtained from the American Type Tissue Culture Collection (ATCC, Manassas, VA, USA) that states the mechanism of resistance for each strain according to ATCC number. Gram-positive bacteria were represented by five strains, the wild type strain Staphylococcus aureus (ATCC 29213) and methicillin-resistant S. aureus (MRSA) (ATCC 33591) in addition to clinically isolated strains S. aureus (ATCC BAA-41& 43300) and Enterococcus faecalis (ATCC BAA-2316). The Gram-negative bacteria strains were represented by wild type strains of Escherichia coli (ATCC 25922 & 35218) and Pseudomonas aeruginosa (ATCC 27853) as well as the clinically isolated multidrug-resistant strain P. aeruginosa (ATCC BAA-2114). The bacteria were cultured onto Muller Hinton Agar (Scharlab, S.L, Barcelona, Spain). Mueller Hinton Broth (Oxoid Ltd., Basingstoke, UK) was used to prepare all bacterial suspensions and to dissolve the peptides and the antibiotics. The assay was performed in sterile 96-well polypropylene microtiter plates.
All bacterial susceptibility assays were conducted according to the microbroth dilution method outlined by the Clinical and Laboratory Standards Institute (CLSI) guidelines.
Briefly, pre-sterilized MHB was used as a growth medium for organisms obtained from stock media with glycerol. Bacterial cells were grown overnight in MHB and diluted to 10^6 CFU/mL in the same medium prior to use. For peptide, serial concentrations in the range of 0.5–100 μM were prepared. Then, 50 μL of each peptide concentration and 50 µL of diluted bacterial suspension were added to each well of a 96-well microtiter plate. Peptide solutions were prepared by dissolving the peptide in sterile MHB. Then, the plates were incubated overnight in a humidified atmosphere, and at 37 °C. Bacterial growth was determined by measuring the optical density (OD) at λ = 600 nm using an ELISA plate reader (Epoch, BioTek, Winooski, VT, USA) and the minimum inhibitory concentration (MIC) was determined.
As described in the previous section, the MIC and MBC values of antibiotics employed in this study were determined against subjected bacterial strains via preparing different concentrations of each antibiotic.

[2] = test system: S. aureus (ATCC 33591) biofilm; assay type: cell-based, Staphylococcus aureus; details: for Viable Biofilm Cells (%): 4 h treatment 37 °C, 8 h recovery, colony count
Procedure: Biofilm formation relied on a published protocol employing the Calgary biofilm device (Innovotech, Edmonton, AB, Canada). Briefly, S. aureus (ATCC 33591) bacterial strain was incubated in MHB and cultures were diluted in the same medium to achieve a concentration of 10^5 CFU/mL. Next, diluted bacterial suspension (150 µL) was added to the sterile 96 peg-lids on which biofilm cells can build up. Negative control lanes were prepared by adding 150 µL MHB to six wells. And then the pegs were incubated for 14–16 h under rotation of 125 rpm at 37 °C to allow biofilm formation on the purpose designed pegs. The pegs were rinsed twice with phosphate-buffered saline (PBS) to remove planktonic cells as a washing step. Each peg-lid was then transferred into a “challenge 96-well microtiter plate” containing 200 μL of different peptides concentrations and the peg-lids containing the biofilms were incubated for four hours at 37 °C under rotation at 125 rpm. After biofilm treatment with the challenge plate, the biofilms were re-washed twice with PBS then transferred into the recovery plate for eight hours. The minimum biofilm eradication concentration MBEC value is defined as the minimum concentration needed to inhibit the re-growth of biofilms after four hours of peptide treatment, washing twice with PBS and incubating in pre-sterilized MHB (recovery plate) for 8 h, using an ELISA plate reader λ = 600 nm. Additionally, the biofilms were assessed for their minimum bactericidal concentration (MBECb), this assay was conducted similar to MBC assay (see Section 2.4.1). MBECb parameter is defined as the lowest concentration able to eradicate 3log^10 of the viable microorganisms in a biofilm (99.9% killing) after 8 h of incubation in recovery plates using the colony count method.

[3] = test system: S. aureus (ATCC 43300); assay: Broth microdilution checkerboard, UP-5 with antibiotics; assay type: cell-based, Staphylococcus aureus; details: S. aureus ATCC 43300, checkerboard, triplicate
Description: as §1
(§2) According to the broth microdilution checkerboard technique, the MIC and MBC values of peptide-antibiotics combinations against wild type and multidrug resistant bacterial strains were determined. Serial concentrations of peptide and each antibiotic were prepared in the range of 0.005–100 μM. In each well of a 96-well microtiter plate, 25 μL of each peptide concentration were added to 25 μL of each antibiotic concentration which is followed by adding 50 μL of diluted bacterial suspension (10^6 CFU/mL) to each well. The prepared concentrations of peptide and each antibiotic were arranged into rows and columns, respectively, in a 96-well microtiter plate according the checkerboard technique. Then as described previously (see Section 2.4.1), the procedure was followed. All MIC and MBC determinations of all assays were made in triplicate.
(§3) The fractional inhibitory concentration (FIC) is defined as the inhibitory concentration of the antimicrobial combination divided by that of the single antimicrobial component. To calculate FIC index for peptide-antibiotic combinations, the following equation was used:(1) FIC index=MIC of drug X in combination/MIC of drug X alone+MIC of drug Y in combination/MIC of drug Y alone
(§4) The FIC indices were interpreted as follows: ≤0.5: synergistic activity, 0.5–1: additive activity, 1–4 indifferent, >4: antagonism. Interpretation and assessment of the FIC indices were performed according to the broth microdilution checkerboard technique.

[4] = test system: S. aureus (ATCC 29213); assay: as above; assay type: cell-based, Staphylococcus aureus; details: S. aureus ATCC 29213, checkerboard, triplicate
Description: as §1, §2, §3, §4

[5] = test system: S. aureus (ATCC 33591); assay: as above; assay type: cell-based, Staphylococcus aureus; details: S. aureus ATCC 33591, checkerboard, triplicate
Description: as §1, §2, §3, §4

[6] = test system: S. aureus (ATCC BAA-41); assay: as above; assay type: cell-based, Staphylococcus aureus; details: S. aureus ATCC BAA-41, checkerboard, triplicate
Description: as §1, §2, §3, §4

[7] = UP-5 in combination with Ampicillin
[8] = UP-5 in combination with Chloramphenicol
[9] = UP-5 in combination with Erythromycin
[10] = UP-5 in combination with Levofloxacin
[11] = UP-5 in combination with Rifampicin

In the case of `N=C(N)NCCC[C@H](NC(=O)[C@H](Cc1ccc(-c2ccccc2)cc1)NC(=O)[C@H](CCCNC(=N)N)NC(=O)[C@H](Cc1ccc(-c2ccccc2)cc1)NC(=O)[C@@H](N)CCCNC(=N)N)C(=O)O` [UP-5] (H-R[Bip]R[Bip]R-OH), the “MBC Value” [1] is reported as 10 µM, the “MIC Value” [1] is reported as 10 µM and the “MBEC value (minimum biofilm eradication concentration)” value ([2]; ATCC 33591, 4 h) is reported as 20 µM. For the same compound, the “MBCb (MBECb), minimum bactericidal concentration against biofilm cells” value ([2]; ATCC 33591, 8 h) was 20 µM, the “Viable Biofilm Cells (%)” value ([2]; peptide concentration 10 μM) was 0.35% and the “Viable Biofilm Cells (%)” value ([2]; peptide concentration 20 μM) was 0.108%. The “Viable Biofilm Cells (%)” value ([2]; peptide concentration 30 μM) was 0.054%, the “Viable Biofilm Cells (%)” value ([2]; peptide concentration 40 μM) was 0% and the “Viable Biofilm Cells (%)” value ([2]; peptide concentration 60 μM) was 0%. For the same compound, the “Viable Biofilm Cells (%)” value ([2]; peptide concentration 80 μM) was 0%, the “Viable Biofilm Cells (%)” value ([2]; peptide concentration 100 μM, compared to untreated biofilm) was 0% and the “UP-5 MIC in Combination” value [3, 7] was 7.5 µM. The “UP-5 MIC in Combination” value [3, 8] was 7.5 µM, the “UP-5 MIC in Combination” value [3, 9] was 7.5 µM and the “UP-5 MIC in Combination” value [3, 10] was 0.025 µM. For the same compound, the “UP-5 MIC in Combination” value [3, 11] was 5 µM, the “UP-5 MIC in Combination” value [4, 7] was 0.25 µM and the “UP-5 MIC in Combination” value [4, 8] was 2.5 µM. The “UP-5 MIC in Combination” value [4, 9] was 10 µM, the “UP-5 MIC in Combination” value [4, 10] was 0.125 µM and the “UP-5 MIC in Combination” value [4, 11] was 10 µM. For the same compound, the “UP-5 MIC in Combination” value [5, 7] was 1.25 µM, the “UP-5 MIC in Combination” value [5, 8] was 5 µM and the “UP-5 MIC in Combination” value [5, 9] was 0.125 µM. For the same compound, the “UP-5 MIC in Combination” value [5, 10] was 0.125 µM, the “UP-5 MIC in Combination” value [5, 11] was 0.125 µM and the “UP-5 MIC in Combination” value [6, 7] was 7.5 µM. The “UP-5 MIC in Combination” value [6, 8] was 7.5 µM, the “UP-5 MIC in Combination” value [6, 9] was 15 µM and the “UP-5 MIC in Combination” value [6, 10] was 15 µM. The “UP-5 MIC in Combination” value [6, 11] was 15 µM.
